Each structure is given as a SMILES string. Where two headings read alike, the source gives them in different places.

Results on two compounds are retold here after patent US12606520B2, “Calpain-2 inhibitor compounds and methods of treatment” (WESTERN UNIVERSITY OF HEALTH SCIENCES, priority 2020, dated 2026).

Data set [1] in a line: Stability in mouse plasma at 37° C. (residual inhibition of purified human calpain-2). The conditions noted are these: mouse, mouse plasma, B-cyclodextrin formulation, 0.2 mM, read-out: Estimated half-life in mouse plasma (converted). It is filed as in vitro ADME. The method, then: NA112 (C12, 0.2 mM) was incubated with mouse plasma at 37° C. for the indicated periods of time. Aliquots were taken and the degree of inhibition of purified human calpain-2 was measured. Results were normalized to the maximum degree of inhibition (100%) measured at to.
NA112A in β-cyclodextrin formulation (10 μM) was incubated in mouse plasma at 37° C. for the indicated periods of time. Aliquots were taken and the degree of inhibition of purified human calpain-2 was measured. Results were normalized to the maximum degree of inhibition (50%) measured at t0.

The target in data set [2] is T1, calpain-1 (Mus musculus, UniProt O35350).
T1 sequence (O35350 1-713): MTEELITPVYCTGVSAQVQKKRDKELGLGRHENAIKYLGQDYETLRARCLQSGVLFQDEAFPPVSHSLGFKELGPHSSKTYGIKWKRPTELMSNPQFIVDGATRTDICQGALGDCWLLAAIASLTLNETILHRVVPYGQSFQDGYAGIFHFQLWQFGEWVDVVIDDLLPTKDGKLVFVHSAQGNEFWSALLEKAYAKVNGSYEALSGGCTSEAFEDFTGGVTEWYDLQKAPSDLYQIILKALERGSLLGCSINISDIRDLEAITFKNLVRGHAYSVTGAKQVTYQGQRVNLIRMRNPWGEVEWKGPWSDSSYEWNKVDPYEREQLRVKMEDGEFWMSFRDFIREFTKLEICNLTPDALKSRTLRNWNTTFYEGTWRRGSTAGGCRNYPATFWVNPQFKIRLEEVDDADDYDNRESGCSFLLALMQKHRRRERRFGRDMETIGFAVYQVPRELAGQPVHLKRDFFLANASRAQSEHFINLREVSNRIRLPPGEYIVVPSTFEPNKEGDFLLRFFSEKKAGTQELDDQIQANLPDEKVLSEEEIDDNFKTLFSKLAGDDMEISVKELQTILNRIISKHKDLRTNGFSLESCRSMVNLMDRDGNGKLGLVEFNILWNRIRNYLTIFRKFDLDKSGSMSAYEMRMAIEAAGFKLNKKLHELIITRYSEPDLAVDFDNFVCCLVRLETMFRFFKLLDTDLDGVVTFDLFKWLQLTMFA
T1 sequence (O88456 1-268 partner): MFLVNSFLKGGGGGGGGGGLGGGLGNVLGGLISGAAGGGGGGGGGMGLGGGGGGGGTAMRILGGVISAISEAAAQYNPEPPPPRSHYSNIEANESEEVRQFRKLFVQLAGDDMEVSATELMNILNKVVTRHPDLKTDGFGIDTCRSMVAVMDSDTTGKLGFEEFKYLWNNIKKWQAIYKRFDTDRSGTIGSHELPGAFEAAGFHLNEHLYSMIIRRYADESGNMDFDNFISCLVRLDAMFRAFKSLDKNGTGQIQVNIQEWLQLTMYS
The data set can be described thus: Calpain-1 activity in WT mouse cerebellar homogenate (20 μM Ca2+), Suc-Leu-Tyr-AMC cleavage. It is filed as biochemical. Further details: from tissue; host or cells: wild-type mouse cerebellar (P2) homogenate. The conditions noted are these: 20 μM calcium, read-out: IC50, 20 μM Ca^2+ (Calpain-1). On the procedure:
Cerebellar homogenates from wild-type (WT) or calpain-1 Knock-out (KO) mice were incubated with 20 μM calcium to activate calpain-1 or with 2 mM calcium to activate calpain-2, respectively, and increasing concentrations of NA112 (12). Calpain activity was measured by the cleavage of Succinyl-Leu-Tyr-7-amino-4-methylcoumarin (Suc-Leu-Tyr-AMC), resulting in increased fluorescence. Activity is normalized to the value measured in the presence of vehicle (DMSO).
WT or calpain-1 KO mouse cerebellar P2 homogenate (crude synaptosomal fraction) were used for measuring inhibitory activity of compounds against the mouse endogenous calpain-1/-2. Each reaction contains 100 ul of WT or calpain-1 KO mouse cerebellar P2 homogenate+0, 20 or 2000 uM Ca^2++0-10,000 nM NA184.
Calpain-1 activity=calpain activity under 20 uM Ca^2+ in WT mice

Data set [3] in a line: PK in mice after iv injection of liposomal NA112: brain. Particulars: mouse; for concentration at 1 min / concentration at 5 min / concentration at 0.25 h / concentration at 0.5 hr / concentration at 1 hr / concentration at 2 h / concentration at 4 h / concentration at 8 h / concentration at 16 h: iv, 10 mg/kg, mice iv 10 mg/kg liposomes; for concentration at 1 min: 0.0167 hr; for concentration at 5 min: 0.0833 hr. The format is in vivo. The method, then: NA112 was prepared in liposomes at a concentration of 1.5 mg/ml. Mice were injected in the tail vein with 200 μl of NA112 in liposomes (corresponding to a dose of 10 mg/kg) and were sacrificed at the following time-points: 1, 5, 15, 30 min, 1, 2, 4, 8, 16 and 24 h. Blood was collected and plasma rapidly prepared by centrifugation. Brains were also collected. NA112 in plasma and in brain homogenates was assayed with LC/Ms and the sensitivity of the assay was 1 ng/ml. Experiments were performed in duplicate (A1 and A2 in Table 3). Results were averaged for preparing the figure and calculating the half-life of NA112 in plasma and in brain.
Data from table 4 are plotted as a function of time. While the curve is not easily fitted with a 2-compartment model, the slower component appears to have a half-life of about 3 h.

For data set [4], the system named is cell death in cortex. The data set can be described thus: Cell death in cortex 24 h after TBI in rats. The format is in vivo. The conditions noted are these: 1 mg/kg i.p. at 1 h and 8 h after TBI. On the procedure:
We also performed the same model of TBI in male and female mice and in male and female rats. In all cases, NA184 was injected i.p. at 1 mg/kg. For the rat experiments, NA184 was injected twice at 1 h and 8 h after TBI. Animals were sacrificed 24 h after TBI and calpain activity was assayed in brain and cell death was analyzed in cortex. […] In addition, there was a highly significant correlation between calpain-2 activity and cell death in rats (FIG. 23). R^2 was 0.61 and p<0.005.

The mark [5] stands for this setting: read-out: Brain concentration A1.
Setting [6] is: read-out: Brain concentration A2.
The mark [7] stands for this setting: read-out: Brain concentration Mean.

Usually half-life stands for the time needed for the level to fall by half in the phase considered. As usually defined, the IC50 is the midpoint of a concentration-inhibition curve. On to `CCC(NC(=O)[C@H](CC(C)C)NC(=O)NCc1ccccc1)C(=O)C(=O)NCc1cc(OC)cc(OC)c1` (mixture of isomers) [NA112, (2S)-2-(3-benzylureido)-N-(1-((3,5-dimethoxybenzyl)amino)-1,2-dioxopentan-3-yl)-4-methylpentanamide], for which the half-life at 0.2 mM in data set [1] is 17 h. For the same compound, the IC50 in data set [2] turned out to be 1380 nM. Further, in data set [3] (setting [5]), the concentration at 1 min was 520 ng/mL, the concentration at 5 min was found to be 168 ng/mL, the concentration at 0.25 h is 106 ng/mL and the concentration at 0.5 hr was determined as 60.6 ng/mL. Moreover, in data set [3] (setting [5]), the concentration at 1 hr was 45.6 ng/mL, the concentration at 2 h is 25.9 ng/mL, the concentration at 4 h is 14 ng/mL and the concentration at 8 h stood at 19.5 ng/mL. The concentration at 16 h in data set [3] (setting [5]) worked out at 6.65 ng/mL. Moreover, in data set [3] (setting [6]), the concentration at 1 min came to 305 ng/mL, the concentration at 5 min turned out to be 129 ng/mL, the concentration at 0.25 h came to 62.3 ng/mL and the concentration at 0.5 hr was found to be 63.4 ng/mL. In data set [3] (setting [6]), the concentration at 1 hr turned out to be 48.4 ng/mL, the concentration at 2 h was determined as 30.9 ng/mL, the concentration at 4 h was 21.3 ng/mL and the concentration at 8 h was determined as 15.4 ng/mL. Also, the concentration at 16 h in data set [3] (setting [6]) was found to be 9.41 ng/mL. For the same compound, in data set [3] (setting [7]), the concentration at 1 min stood at 412 ng/mL, the concentration at 5 min came to 149 ng/mL, the concentration at 0.25 h is 84.4 ng/mL and the concentration at 0.5 hr is 62 ng/mL. In data set [3] (setting [7]), the concentration at 1 hr came out at 47 ng/mL, the concentration at 2 h was found to be 28.4 ng/mL, the concentration at 4 h is 17.6 ng/mL and the concentration at 8 h was found to be 17.4 ng/mL. For the same compound, the concentration at 16 h in data set [3] (setting [7]) was 8.03 ng/mL. Moreover, the half-life in data set [3] (mice, iv 10 mg/kg in liposomes, read-out: Half-life of slower component in brain (converted)) is roughly 3 h.
For `CCC(NC(=O)[C@H](CC(C)C)NC(=O)NCc1ccccc1)C(=O)C(=O)NCc1cccc(Cl)c1OC` (stereo partly drawn) [NA184, (2S)-2-(3-benzylureido)-N-(1-((3-chloro-2-methoxybenzyl)amino)-1,2-dioxopentan-3-yl)-4-methylpentanamide], the “Cell death in cortex, male and female rats” value in data set [4] was “significantly prevented cell death”.
